We go through 24 molecules from US20250340557A1, “PYRIMIDINE DERIVATIVE” (ASKA PHARMACEUTICAL CO., LTD., priority 2022, published 2025).

The experiment addresses T1, human mPGES-1 (Homo sapiens, UniProt O14684).
T1 construct: made in house; host or cells: COS-1 cells (transient transfection; microsomal fraction used as enzyme)
T1 sequence (O14684 1-152): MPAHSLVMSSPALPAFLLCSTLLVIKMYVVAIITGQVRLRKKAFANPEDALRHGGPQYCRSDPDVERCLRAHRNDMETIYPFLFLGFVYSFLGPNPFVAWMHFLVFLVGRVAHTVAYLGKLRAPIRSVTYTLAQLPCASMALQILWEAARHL
The experiment in a line: Test for mPGES-1 inhibitory activity (microsomal enzyme, PGE2 EIA). Type of experiment: biochemical. To be noted: microsomes of COS-1 cells transfected with human mPGES-1 cDNA; PGH2 1 μM; 4° C., 4 minutes; PGE2 by EIA; read-out: h mPGES1 IC50. The gist of the method:
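IC50 values were derived from EIA-quantified PGE2 after a 4 min, 4 °C reaction with PGH2 at 1 μM final, stopped with ferric chloride/citric acid. Beforehand, compound (2% DMSO final) sat 15 min at 4 °C with human mPGES-1 microsomes from transiently transfected COS-1 cells. Buffer was sodium phosphate pH 7.2 containing 2.5 mM reduced glutathione and 1 mM EDTA.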
The term IC50 denotes the concentration at which inhibition is half-maximal. For `Cc1cc(=O)[nH]c(-c2c(C(F)(F)F)ccc(CNC(=O)[C@H]3C[C@H](OCc4cccc(Cl)c4)C3)c2F)n1` [Example 179, trans-3-[(3-chlorobenzyl)oxy]-N-[2-fluoro-3-(4-methyl-6-oxo-1,6-dihydropyrimidin-2-yl)-4-(trifluoromethyl)benzyl]cyclobutane-1-carboxamide], the IC50 was less than 1 nM.

Consider `Cc1cc(=O)[nH]c(-c2c(C(F)(F)F)ccc(CNC(=O)[C@H]3C[C@H](OCc4ccc(Cl)cc4)C3)c2F)n1` [Example 180, trans-3-[(4-chlorobenzyl)oxy]-N-[2-fluoro-3-(4-methyl-6-oxo-1,6-dihydropyrimidin-2-yl)-4-(trifluoromethyl)benzyl]cyclobutane-1-carboxamide], for which the IC50 was found to be 1.7 nM.

Turning to `Cc1cc(=O)[nH]c(-c2c(C(F)(F)F)ccc(CNC(=O)[C@H]3C[C@H](OCc4ccccc4C(F)(F)F)C3)c2F)n1` [Example 181, trans-N-[2-fluoro-3-(4-methyl-6-oxo-1,6-dihydropyrimidin-2-yl)-4-(trifluoromethyl)benzyl]-3-{[2-(trifluoromethyl)benzyl]oxy}cyclobutane-1-carboxamide], the IC50 was 19 nM.

On to `Cc1cc(=O)[nH]c(-c2c(C(F)(F)F)ccc(CNC(=O)[C@H]3C[C@H](OCc4cccc(C(F)(F)F)c4)C3)c2F)n1` [Example 182, trans-N-[2-fluoro-3-(4-methyl-6-oxo-1,6-dihydropyrimidin-2-yl)-4-(trifluoromethyl)benzyl]-3-{[3-(trifluoromethyl)benzyl]oxy}cyclobutane-1-carboxamide], for which the IC50 is 12 nM.

Take `Cc1cc(=O)[nH]c(-c2c(C(F)(F)F)ccc(CNC(=O)[C@H]3C[C@H](OCc4ccc(C(F)(F)F)cc4)C3)c2F)n1` [Example 183, trans-N-[2-fluoro-3-(4-methyl-6-oxo-1,6-dihydropyrimidin-2-yl)-4-(trifluoromethyl)benzyl]-3-{[4-(trifluoromethyl)benzyl]oxy}cyclobutane-1-carboxamide]: the IC50 was 10 nM.

For `Cc1cc(=O)[nH]c(-c2c(C(F)(F)F)ccc(CNC(=O)[C@H]3C[C@H](OCc4ccc(F)cc4F)C3)c2F)n1` [Example 184, trans-3-[(2,4-difluorobenzyl)oxy]-N-[2-fluoro-3-(4-methyl-6-oxo-1,6-dihydropyrimidin-2-yl)-4-(trifluoromethyl)benzyl]cyclobutane-1-carboxamide], the IC50 was less than 1 nM.

Regarding `Cc1cc(=O)[nH]c(-c2c(C(F)(F)F)ccc(CNC(=O)[C@H]3C[C@H](OCc4ccc(Cl)cc4F)C3)c2F)n1` [Example 185, trans-3-[(4-chloro-2-fluorobenzyl)oxy]-N-[2-fluoro-3-(4-methyl-6-oxo-1,6-dihydropyrimidin-2-yl)-4-(trifluoromethyl)benzyl]cyclobutane-1-carboxamide], the IC50 was 1.2 nM.

Take `Cc1cc(=O)[nH]c(-c2c(C(F)(F)F)ccc(CNC(=O)[C@H]3C[C@H](OCc4ccc(F)c(F)c4)C3)c2F)n1` [Example 186, trans-3-[(3,4-difluorobenzyl)oxy]-N-[2-fluoro-3-(4-methyl-6-oxo-1,6-dihydropyrimidin-2-yl)-4-(trifluoromethyl)benzyl]cyclobutane-1-carboxamide]: the IC50 worked out at 3.2 nM.

For the molecule `Cc1cc(=O)[nH]c(-c2c(C(F)(F)F)ccc(CNC(=O)[C@H]3C[C@H](OCc4cc(F)cc(F)c4)C3)c2F)n1` [Example 187, trans-3-[(3,5-difluorobenzyl)oxy]-N-[2-fluoro-3-(4-methyl-6-oxo-1,6-dihydropyrimidin-2-yl)-4-(trifluoromethyl)benzyl]cyclobutane-1-carboxamide], the IC50 worked out at 6.4 nM.

In the case of `Cc1cc(=O)[nH]c(-c2c(C(F)(F)F)ccc(CNC(=O)[C@H]3C[C@H](OCc4cccc(F)c4)C3)c2F)n1` [Example 188, trans-N-[2-fluoro-3-(4-methyl-6-oxo-1,6-dihydropyrimidin-2-yl)-4-(trifluoromethyl)benzyl]-3-[(3-fluorobenzyl)oxy]cyclobutane-1-carboxamide], the IC50 was found to be 10 nM.

`Cc1cc(=O)[nH]c(-c2c(C(F)(F)F)ccc(CNC(=O)[C@H]3C[C@H](OCc4cccc(F)c4F)C3)c2F)n1` [Example 189, trans-3-[(2,3-difluorobenzyl)oxy]-N-[2-fluoro-3-(4-methyl-6-oxo-1,6-dihydropyrimidin-2-yl)-4-(trifluoromethyl)benzyl]cyclobutane-1-carboxamide]: the IC50 was determined as 13 nM.

Take `Cc1cc(=O)[nH]c(-c2c(C(F)(F)F)ccc(CNC(=O)[C@H]3C[C@H](OCc4ccc(F)cc4Cl)C3)c2F)n1` [Example 190, trans-3-[(2-chloro-4-fluorobenzyl)oxy]-N-[2-fluoro-3-(4-methyl-6-oxo-1,6-dihydropyrimidin-2-yl)-4-(trifluoromethyl)benzyl]cyclobutane-1-carboxamide]: the IC50 is less than 1 nM.

Turning to `Cc1cc(=O)[nH]c(-c2c(C(F)(F)F)ccc(CNC(=O)[C@H]3C[C@H](OCc4cccc(Cl)c4F)C3)c2F)n1` [Example 191, trans-3-[(3-chloro-2-fluorobenzyl)oxy]-N-[2-fluoro-3-(4-methyl-6-oxo-1,6-dihydropyrimidin-2-yl)-4-(trifluoromethyl)benzyl]cyclobutane-1-carboxamide], the IC50 was less than 1 nM.

With `Cc1cc(=O)[nH]c(-c2c(C(F)(F)F)ccc(CNC(=O)[C@H]3C[C@H](OCc4cc(Cl)ccc4F)C3)c2F)n1` [Example 192, trans-3-[(5-chloro-2-fluorobenzyl)oxy]-N-[2-fluoro-3-(4-methyl-6-oxo-1,6-dihydropyrimidin-2-yl)-4-(trifluoromethyl)benzyl]cyclobutane-1-carboxamide], the IC50 is less than 1 nM.

As for `Cc1cc(=O)[nH]c(-c2c(C(F)(F)F)ccc(CNC(=O)[C@H]3C[C@H](OCc4ccc(F)c(Cl)c4)C3)c2F)n1` [Example 193, trans-3-[(3-chloro-4-fluorobenzyl)oxy]-N-[2-fluoro-3-(4-methyl-6-oxo-1,6-dihydropyrimidin-2-yl)-4-(trifluoromethyl)benzyl]cyclobutane-1-carboxamide], the IC50 is less than 1 nM.

For the molecule `Cc1cc(=O)[nH]c(-c2c(C(F)(F)F)ccc(CNC(=O)[C@H]3C[C@H](OCc4cc(F)cc(Cl)c4)C3)c2F)n1` [Example 194, trans-3-[(3-chloro-5-fluorobenzyl)oxy]-N-[2-fluoro-3-(4-methyl-6-oxo-1,6-dihydropyrimidin-2-yl)-4-(trifluoromethyl)benzyl]cyclobutane-1-carboxamide], the IC50 was 3.6 nM.

`CCc1cc(=O)[nH]c(-c2c(C(F)(F)F)ccc(CNC(=O)[C@H]3C[C@H](OCc4ccccc4Cl)C3)c2F)n1` [Example 195, trans-3-[(2-chlorobenzyl)oxy]-N-[3-(4-ethyl-6-oxo-1,6-dihydropyrimidin-2-yl)-2-fluoro-4-(trifluoromethyl)benzyl]cyclobutane-1-carboxamide]: the IC50 was less than 1 nM.

On to `CCc1cc(=O)[nH]c(-c2c(C(F)(F)F)ccc(CNC(=O)[C@H]3C[C@H](OCc4cccc(Cl)c4)C3)c2F)n1` [Example 196, trans-3-[(3-chlorobenzyl)oxy]-N-[3-(4-ethyl-6-oxo-1,6-dihydropyrimidin-2-yl)-2-fluoro-4-(trifluoromethyl)benzyl]cyclobutane-1-carboxamide], for which the IC50 is less than 1 nM.

Take `CCc1cc(=O)[nH]c(-c2c(C(F)(F)F)ccc(CNC(=O)[C@H]3C[C@H](OCc4ccc(Cl)cc4)C3)c2F)n1` [Example 197, trans-3-[(4-chlorobenzyl)oxy]-N-[3-(4-ethyl-6-oxo-1,6-dihydropyrimidin-2-yl)-2-fluoro-4-(trifluoromethyl)benzyl]cyclobutane-1-carboxamide]: the IC50 is 3.7 nM.

As for `CCc1cc(=O)[nH]c(-c2c(C(F)(F)F)ccc(CNC(=O)[C@H]3C[C@H](OCc4ccccc4C(F)(F)F)C3)c2F)n1` [Example 198, trans-N-[3-(4-ethyl-6-oxo-1,6-dihydropyrimidin-2-yl)-2-fluoro-4-(trifluoromethyl)benzyl]-3-{[2-(trifluoromethyl)benzyl]oxy}cyclobutane-1-carboxamide], the IC50 is 1.4 nM.

Take `CCc1cc(=O)[nH]c(-c2c(C(F)(F)F)ccc(CNC(=O)[C@H]3C[C@H](OCc4cccc(C(F)(F)F)c4)C3)c2F)n1` [Example 199, trans-N-[3-(4-ethyl-6-oxo-1,6-dihydropyrimidin-2-yl)-2-fluoro-4-(trifluoromethyl)benzyl]-3-{[3-(trifluoromethyl)benzyl]oxy}cyclobutane-1-carboxamide]: the IC50 was 1.1 nM.

Regarding `CCc1cc(=O)[nH]c(-c2c(C(F)(F)F)ccc(CNC(=O)[C@H]3C[C@H](OCc4ccc(C(F)(F)F)cc4)C3)c2F)n1` [Example 200, trans-N-[3-(4-ethyl-6-oxo-1,6-dihydropyrimidin-2-yl)-2-fluoro-4-(trifluoromethyl)benzyl]-3-{[4-(trifluoromethyl)benzyl]oxy}cyclobutane-1-carboxamide], the IC50 is 6.5 nM.

With `CCc1cc(=O)[nH]c(-c2c(C(F)(F)F)ccc(CNC(=O)[C@H]3C[C@H](OCc4ccc(F)cc4F)C3)c2F)n1` [Example 201, trans-3-[(2,4-difluorobenzyl)oxy]-N-[3-(4-ethyl-6-oxo-1,6-dihydropyrimidin-2-yl)-2-fluoro-4-(trifluoromethyl)benzyl]cyclobutane-1-carboxamide], the IC50 was less than 1 nM.

Take `CCc1cc(=O)[nH]c(-c2c(C(F)(F)F)ccc(CNC(=O)[C@H]3C[C@H](OCc4ccc(Cl)cc4F)C3)c2F)n1` [Example 202, trans-3-[(4-chloro-2-fluorobenzyl)oxy]-N-[3-(4-ethyl-6-oxo-1,6-dihydropyrimidin-2-yl)-2-fluoro-4-(trifluoromethyl)benzyl]cyclobutane-1-carboxamide]: the IC50 was less than 1 nM.
